This is an account of results in PMC10996616 (bioRxiv, 2024).

Structures are written as SMILES.

Test [1] concerns the target PaFS (full-length fusicoccadiene synthase) (Diaporthe amygdali, UniProt A2PZA5). The test is described as follows: EnzChek pyrophosphate release, steady-state kinetics, A360. The settings on record: Mg2+ 2.5 mM, pH 7.5; cyclization to fusicoccadiene; cyclase domain. It counts as biochemical.
The target of test [2] is PaFSCY (individual cyclase domain of fusicoccadiene synthase) (Diaporthe amygdali, UniProt A2PZA5). The description is as above. The settings on record: Mg2+ 2.5 mM, pH 7.5; cyclization to fusicoccadiene. Format: biochemical.
PaFSCY (individual cyclase domain of fusicoccadiene synthase), sequence (A2PZA5 1-344): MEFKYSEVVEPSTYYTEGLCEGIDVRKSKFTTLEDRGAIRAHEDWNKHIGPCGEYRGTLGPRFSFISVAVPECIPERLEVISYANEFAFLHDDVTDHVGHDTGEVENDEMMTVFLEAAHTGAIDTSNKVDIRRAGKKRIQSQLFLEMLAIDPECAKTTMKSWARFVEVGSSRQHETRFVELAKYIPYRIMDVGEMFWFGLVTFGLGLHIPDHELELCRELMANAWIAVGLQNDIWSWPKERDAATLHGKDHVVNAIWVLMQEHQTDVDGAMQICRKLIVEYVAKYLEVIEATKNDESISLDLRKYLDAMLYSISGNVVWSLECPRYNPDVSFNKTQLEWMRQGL

PaFS (full-length fusicoccadiene synthase), sequence (A2PZA5 whole entry, the tested form may be a part): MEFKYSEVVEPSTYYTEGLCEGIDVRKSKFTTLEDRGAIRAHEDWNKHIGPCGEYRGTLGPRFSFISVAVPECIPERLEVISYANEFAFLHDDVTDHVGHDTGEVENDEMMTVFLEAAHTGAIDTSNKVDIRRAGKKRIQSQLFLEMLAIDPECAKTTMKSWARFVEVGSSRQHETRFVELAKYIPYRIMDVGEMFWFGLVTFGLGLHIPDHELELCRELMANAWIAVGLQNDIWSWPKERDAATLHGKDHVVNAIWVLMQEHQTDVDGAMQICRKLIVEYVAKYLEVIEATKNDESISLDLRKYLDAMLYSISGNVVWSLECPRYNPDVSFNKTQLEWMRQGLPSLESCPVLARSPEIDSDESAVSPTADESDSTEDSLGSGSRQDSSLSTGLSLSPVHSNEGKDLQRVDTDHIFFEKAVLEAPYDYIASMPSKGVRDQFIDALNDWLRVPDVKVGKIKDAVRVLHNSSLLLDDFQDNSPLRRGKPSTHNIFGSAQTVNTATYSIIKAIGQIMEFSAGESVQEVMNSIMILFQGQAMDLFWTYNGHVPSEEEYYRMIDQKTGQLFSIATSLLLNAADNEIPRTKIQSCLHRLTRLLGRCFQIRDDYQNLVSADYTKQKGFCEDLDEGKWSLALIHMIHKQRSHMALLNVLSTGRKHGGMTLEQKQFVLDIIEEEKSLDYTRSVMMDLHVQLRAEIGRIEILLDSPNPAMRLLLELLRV

For the compound `CC(C)=CCC/C(C)=C/CC/C(C)=C/CC/C(C)=C/COP(=O)(O)OP(=O)(O)O` [GGPP, geranylgeranyl diphosphate], the KM entry in test [1] was “(PaFS, PaFSLL, and PaFSCY) are most efficient”; in test [2], “(PaFS, PaFSLL, and PaFSCY) are most efficient”.
